Assay results from ChEMBL document CHEMBL1201862, “PubChem BioAssay data set” (2004).
The source made the active and inactive calls.

How the values were obtained:
[1] = target: T1, Carboxy-terminal domain RNA polymerase II polypeptide A small phosphatase 1 (Homo sapiens, UniProt Q9GZU7); assay: CTDSP1 inhibitors, concentration-response, biochemical, absorbance readout, ultra-high-throughput screen actives (AID 540297); assay type: functional
T1 sequence (Q9GZU7 whole entry): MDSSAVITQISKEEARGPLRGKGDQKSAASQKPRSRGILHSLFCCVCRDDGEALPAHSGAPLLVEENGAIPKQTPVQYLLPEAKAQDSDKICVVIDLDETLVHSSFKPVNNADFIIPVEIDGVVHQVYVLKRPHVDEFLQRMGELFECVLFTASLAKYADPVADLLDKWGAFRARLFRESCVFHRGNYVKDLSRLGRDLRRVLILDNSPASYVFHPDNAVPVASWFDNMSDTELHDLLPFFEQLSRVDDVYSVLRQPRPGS

[2] = target: 5-hydroxytryptamine receptor 1A (Homo sapiens, UniProt P08908); assay type: functional
[3] = target: Polyadenylate-binding protein 1 (Homo sapiens, UniProt P11940); assay: blockers of PABP interaction with poly(A) – biochemical, fluorescence polarization, […] (AID 2014)
[4] = target: Eukaryotic translation initiation factor 4H (Homo sapiens, UniProt Q15056); assay: eIF4H binding inhibition – biochemical, uHTS, fluorescence polarization, translation initiation inhibitor project, primary screen (AID 2012)
[5] = M. tuberculosis growth inhibition, HTS (AID 449762); assay type: functional
[6] = test system: Danio rerio; assay: In Vivo Angiogenesis Dose-Response Confirmation. [Related pubchem assays: 732 (Assay preceding this confirmatory assay.)]; assay type: functional, organism-based
[7] = target: Peroxisome proliferator-activated receptor gamma/Nuclear receptor corepressor 2 (Homo sapiens, UniProt P37231+Q9Y618); assay: Counterscreen for NR2E3 inverse agonists: TR-FRET-based biochemical high throughput dose response assay to identify inverse agonists of the interaction between peroxisome proliferator-activated receptor gamma (PPARg) and nuclear receptor co-repressor 2 (NCOR2).; assay type: functional
[8] = target: Photoreceptor-specific nuclear receptor (Homo sapiens, UniProt Q9Y5X4); assay: ligands suppressing NR2E3 nuclear receptor activity – biochemical, TR-FRET, dose response (AID 463256); assay type: functional
[9] = target: Genome polyprotein (Hepatitis C virus, UniProt Q2Q167); assay: disruption of hepatitis C core self-association – biochemical, TR-FRET, dose response (AID 2159); design: species or system Hepacivirus hominis;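 note: blocks dimerization of HCV core protein measured by TR-FRET between tagged core106 pairs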
[10] = test system: H9c2; assay: cells; assay type: functional, cell-based; conditions: Rattus norvegicus, H9c2, Myocardium;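 note: confirmatory concentration-response retest of ultra-high-throughput screening hits for modulation of myocardial damage; cell death induced by hydrogen peroxide oxidative stress; compound pretreatment for 60 min then peroxide exposure for 2 h; potency is for protecting the cells against peroxide damage rather than for killing them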
[11] = target: T2, NADPH oxidase 1 (Homo sapiens, UniProt Q9Y5S8); assay: Late-stage luminescence-based cell-based dose response assay to identify inhibitors of NADPH oxidase 1 (NOX1): Purchased analogs 2.; assay type: functional
T2 sequence (Q9Y5S8 whole entry): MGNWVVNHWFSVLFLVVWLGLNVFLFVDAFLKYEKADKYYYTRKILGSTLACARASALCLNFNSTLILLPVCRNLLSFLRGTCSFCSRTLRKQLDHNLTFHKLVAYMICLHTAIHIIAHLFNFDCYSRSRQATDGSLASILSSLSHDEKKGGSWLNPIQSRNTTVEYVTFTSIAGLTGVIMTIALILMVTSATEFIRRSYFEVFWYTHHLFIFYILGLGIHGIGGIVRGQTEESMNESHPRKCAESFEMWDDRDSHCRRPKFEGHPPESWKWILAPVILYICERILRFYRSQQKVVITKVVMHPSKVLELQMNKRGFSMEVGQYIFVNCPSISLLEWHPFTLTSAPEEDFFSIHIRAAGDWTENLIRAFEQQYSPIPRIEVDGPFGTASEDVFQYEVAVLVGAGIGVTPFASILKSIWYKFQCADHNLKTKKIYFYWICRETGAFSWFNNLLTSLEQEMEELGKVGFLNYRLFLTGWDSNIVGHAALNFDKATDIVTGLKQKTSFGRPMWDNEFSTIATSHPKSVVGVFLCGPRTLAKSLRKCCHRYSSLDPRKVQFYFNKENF

[12] = target: T3, Leucine aminopeptidase (Plasmodium falciparum 3D7, UniProt Q8IL11); assay: P. falciparum M17LAP inhibitors, primary screen, biochemical, fluorogenic H-Leu-NHMec substrate, 1536-well (AID 1619); assay type: functional
T3 sequence (Q8IL11 whole entry): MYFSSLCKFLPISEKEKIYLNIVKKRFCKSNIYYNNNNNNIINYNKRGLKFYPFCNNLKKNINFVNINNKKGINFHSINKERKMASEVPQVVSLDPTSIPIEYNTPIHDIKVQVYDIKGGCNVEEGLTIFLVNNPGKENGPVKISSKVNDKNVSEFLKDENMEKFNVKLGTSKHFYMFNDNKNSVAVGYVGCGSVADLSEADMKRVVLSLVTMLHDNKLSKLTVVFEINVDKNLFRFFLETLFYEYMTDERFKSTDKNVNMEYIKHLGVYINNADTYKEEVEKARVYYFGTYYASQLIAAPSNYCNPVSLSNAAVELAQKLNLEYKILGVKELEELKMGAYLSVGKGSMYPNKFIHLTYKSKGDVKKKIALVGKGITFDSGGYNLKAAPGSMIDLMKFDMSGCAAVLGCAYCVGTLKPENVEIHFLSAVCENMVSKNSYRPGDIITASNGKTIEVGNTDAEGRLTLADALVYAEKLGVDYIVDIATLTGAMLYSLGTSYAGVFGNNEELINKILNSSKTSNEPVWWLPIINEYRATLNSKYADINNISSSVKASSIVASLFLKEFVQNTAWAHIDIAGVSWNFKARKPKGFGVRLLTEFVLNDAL

[13] = target: Aryl hydrocarbon receptor (Homo sapiens, UniProt P35869); assay: Luminescence-based cell-based high throughput dose response assay for activators of the Aryl Hydrocarbon Receptor (AHR). [Related pubchem assays: 2796 (Primary screen (AHR activators in singlicate)), 2845 (Confirmation screen (AHR activators in triplicate)), 434939 (Counterscreen (PXR activators in triplicate)), 2804 (Summary (AHR activators))]; assay type: ADME
[14] = Luminescence Cell-Based Dose Retest to Confirm Inhibitors of Cancer Stem Cells. [Related pubchem assays (depositor defined):AID2717, AID2721]; assay type: functional; conditions: Homo sapiens
[15] = test system: Vero; assay: mammalian cell viability reduction – secondary assay, cytotoxicity control for West Nile virus antiviral project, dose response (AID 1650); assay type: functional; conditions: Chlorocebus sabaeus
[16] = target: T4, Tyrosine-protein phosphatase non-receptor type 7 (Homo sapiens, UniProt P35236); assay: HePTP tyrosine phosphatase activity blockers – biochemical, absorbance, leukemia target, primary screen (AID 521); assay type: functional
T4 sequence (P35236 whole entry): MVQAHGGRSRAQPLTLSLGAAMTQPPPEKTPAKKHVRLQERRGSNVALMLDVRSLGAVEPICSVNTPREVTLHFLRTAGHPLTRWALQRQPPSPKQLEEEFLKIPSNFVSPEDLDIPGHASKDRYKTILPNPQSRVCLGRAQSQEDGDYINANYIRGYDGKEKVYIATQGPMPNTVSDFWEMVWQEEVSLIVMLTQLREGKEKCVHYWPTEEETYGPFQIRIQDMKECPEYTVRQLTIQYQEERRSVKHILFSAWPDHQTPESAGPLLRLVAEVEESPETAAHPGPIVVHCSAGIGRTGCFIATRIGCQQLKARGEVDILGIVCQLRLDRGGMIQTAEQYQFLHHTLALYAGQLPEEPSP

[17] = target: T5, Bcl-2-related protein A1 (Mus musculus, UniProt Q07440); assay: small-molecule antagonists of Bfl-1/BH3 interaction – biochemical, TR-FRET, mouse Bfl-1, confirmation (AID 621);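 note: TR-FRET binding of GST-Bfl-1 to FITC-labelled Bid peptide via terbium antibody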
T5 sequence (Q07440 whole entry): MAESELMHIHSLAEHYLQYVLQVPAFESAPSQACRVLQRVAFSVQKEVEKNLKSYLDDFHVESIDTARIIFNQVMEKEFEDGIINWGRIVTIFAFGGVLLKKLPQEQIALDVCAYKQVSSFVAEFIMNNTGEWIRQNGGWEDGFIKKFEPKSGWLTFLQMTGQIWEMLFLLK

[18] = target: Glyceraldehyde-3-phosphate dehydrogenase (Homo sapiens, UniProt P04406)
[19] = target: T5, Bcl-2-related protein A1; assay: Bfl-1 binding inhibitors, SAR follow-up, biochemical, fluorescence polarization (AID 1070)
[20] = target: Histone-lysine N-methyltransferase NSD2 (Homo sapiens, UniProt O96028); assay type: biochemical
[21] = NIH3T3 cell viability loss – ATP luminescence, mouse fibroblasts, counter-screen, dose response (AID 2010); assay type: functional, cell-based;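 note: cells exposed to compound for about 90 hours before reading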
[22] = target: Serine/threonine-protein phosphatase (Homo sapiens, UniProt Q9BPW0); assay: inhibition of protein phosphatase 5 activity – biochemical, fluorescence, dose response (AID 2395)
[23] = target: RNA-editing ligase 1, mitochondrial (Trypanosoma brucei brucei, UniProt P86926); assay: inhibition of trypanosome RNA editing ligase – biochemical, fluorescence, Trypanosoma brucei, dose response (AID 1117295); assay type: functional
[24] = target: Serine/threonine-protein phosphatase PP1-alpha catalytic subunit (Homo sapiens, UniProt P62136); assay: inhibition of protein phosphatase 1 activity – biochemical, fluorescence, dose response (AID 2394)
[25] = target: T6, Apoptotic protease-activating factor 1 (Homo sapiens, UniProt O14727); assay type: functional
T6 sequence (O14727 whole entry): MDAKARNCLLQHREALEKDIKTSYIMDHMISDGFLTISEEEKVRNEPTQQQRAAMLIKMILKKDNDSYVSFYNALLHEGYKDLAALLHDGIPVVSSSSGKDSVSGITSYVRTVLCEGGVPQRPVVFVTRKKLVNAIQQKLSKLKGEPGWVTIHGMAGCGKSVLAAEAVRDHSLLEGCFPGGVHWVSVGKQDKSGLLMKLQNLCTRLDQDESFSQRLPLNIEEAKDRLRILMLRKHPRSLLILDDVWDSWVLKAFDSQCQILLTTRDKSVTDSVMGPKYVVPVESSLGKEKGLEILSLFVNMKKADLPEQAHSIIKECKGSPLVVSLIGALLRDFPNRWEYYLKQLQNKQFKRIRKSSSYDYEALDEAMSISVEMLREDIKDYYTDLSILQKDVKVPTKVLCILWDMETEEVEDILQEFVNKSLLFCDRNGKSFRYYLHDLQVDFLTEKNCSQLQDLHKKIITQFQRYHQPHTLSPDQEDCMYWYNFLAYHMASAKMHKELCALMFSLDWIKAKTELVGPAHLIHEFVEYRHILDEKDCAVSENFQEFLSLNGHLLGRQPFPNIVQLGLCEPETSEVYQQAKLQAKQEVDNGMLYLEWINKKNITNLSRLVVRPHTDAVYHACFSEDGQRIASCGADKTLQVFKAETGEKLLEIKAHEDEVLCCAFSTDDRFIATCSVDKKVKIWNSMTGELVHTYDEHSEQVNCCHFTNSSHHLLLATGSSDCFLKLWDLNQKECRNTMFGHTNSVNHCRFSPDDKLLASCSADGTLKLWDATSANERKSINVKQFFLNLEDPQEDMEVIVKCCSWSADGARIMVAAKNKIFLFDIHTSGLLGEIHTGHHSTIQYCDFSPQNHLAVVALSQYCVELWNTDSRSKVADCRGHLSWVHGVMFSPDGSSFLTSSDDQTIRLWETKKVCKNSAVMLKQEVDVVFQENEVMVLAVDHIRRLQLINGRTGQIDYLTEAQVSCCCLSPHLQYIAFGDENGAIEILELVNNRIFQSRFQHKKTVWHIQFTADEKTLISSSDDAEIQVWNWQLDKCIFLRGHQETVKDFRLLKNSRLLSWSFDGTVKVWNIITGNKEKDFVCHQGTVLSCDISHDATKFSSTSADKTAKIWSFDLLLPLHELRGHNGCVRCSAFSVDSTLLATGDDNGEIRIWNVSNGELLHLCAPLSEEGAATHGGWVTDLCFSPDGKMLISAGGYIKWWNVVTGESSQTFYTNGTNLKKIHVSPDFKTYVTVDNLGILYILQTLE

[26] = Trypanosoma cruzi growth suppression in host cells – NIH3T3 host cells, beta-gal luminescence, confirmation (AID 2044); assay type: functional, cell-based;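 note: intracellular parasites grown in NIH/3T3 mouse fibroblasts as host cells; luminescent beta-galactosidase reporter signal from transgenic T. cruzi replicating inside host cells; inhibitors lower the luminescence signal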

Chain of 5-hydroxytryptamine receptor 1A (P08908 whole entry): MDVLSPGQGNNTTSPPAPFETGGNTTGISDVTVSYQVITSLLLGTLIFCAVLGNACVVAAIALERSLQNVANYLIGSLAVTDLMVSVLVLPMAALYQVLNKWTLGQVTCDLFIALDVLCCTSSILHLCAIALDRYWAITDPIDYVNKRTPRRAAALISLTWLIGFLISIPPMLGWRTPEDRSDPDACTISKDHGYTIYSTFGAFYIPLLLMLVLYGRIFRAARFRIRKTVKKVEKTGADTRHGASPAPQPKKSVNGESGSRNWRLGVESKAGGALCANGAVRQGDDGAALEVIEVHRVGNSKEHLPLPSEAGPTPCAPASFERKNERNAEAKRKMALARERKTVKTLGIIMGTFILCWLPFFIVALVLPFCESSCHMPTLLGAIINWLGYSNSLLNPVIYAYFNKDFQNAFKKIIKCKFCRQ
Chain of Polyadenylate-binding protein 1 (P11940 whole entry): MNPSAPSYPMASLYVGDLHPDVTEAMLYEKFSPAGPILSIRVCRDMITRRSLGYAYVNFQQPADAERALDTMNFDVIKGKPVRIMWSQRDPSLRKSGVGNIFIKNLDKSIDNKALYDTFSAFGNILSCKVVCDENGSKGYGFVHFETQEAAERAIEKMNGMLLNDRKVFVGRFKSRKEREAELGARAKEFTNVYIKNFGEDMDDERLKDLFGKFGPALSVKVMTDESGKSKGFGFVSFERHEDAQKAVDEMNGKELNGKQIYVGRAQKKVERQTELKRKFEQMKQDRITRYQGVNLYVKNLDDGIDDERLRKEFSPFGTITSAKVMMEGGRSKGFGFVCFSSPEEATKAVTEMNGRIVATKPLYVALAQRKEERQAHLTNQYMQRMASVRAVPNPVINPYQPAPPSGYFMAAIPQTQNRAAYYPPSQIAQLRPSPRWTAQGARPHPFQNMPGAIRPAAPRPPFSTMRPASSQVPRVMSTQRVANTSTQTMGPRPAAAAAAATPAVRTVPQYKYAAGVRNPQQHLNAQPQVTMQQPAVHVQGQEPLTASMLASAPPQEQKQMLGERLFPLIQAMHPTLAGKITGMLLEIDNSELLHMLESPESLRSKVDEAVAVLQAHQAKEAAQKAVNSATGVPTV
Chain of Peroxisome proliferator-activated receptor gamma/Nuclear receptor corepressor 2 (P37231 whole entry): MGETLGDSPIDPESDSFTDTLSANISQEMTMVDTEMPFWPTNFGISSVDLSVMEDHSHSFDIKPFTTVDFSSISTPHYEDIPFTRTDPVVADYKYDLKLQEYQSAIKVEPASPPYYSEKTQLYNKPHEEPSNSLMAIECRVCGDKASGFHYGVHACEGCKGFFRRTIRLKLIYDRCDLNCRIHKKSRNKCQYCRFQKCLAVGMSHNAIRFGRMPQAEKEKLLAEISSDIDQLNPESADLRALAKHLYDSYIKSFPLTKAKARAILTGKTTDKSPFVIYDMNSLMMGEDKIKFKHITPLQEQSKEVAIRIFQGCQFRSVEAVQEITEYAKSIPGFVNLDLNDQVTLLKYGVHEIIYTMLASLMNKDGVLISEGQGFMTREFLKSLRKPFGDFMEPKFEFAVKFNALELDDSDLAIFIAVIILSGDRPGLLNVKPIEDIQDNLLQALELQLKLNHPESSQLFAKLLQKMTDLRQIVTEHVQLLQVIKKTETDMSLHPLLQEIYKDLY
Chain of Peroxisome proliferator-activated receptor gamma/Nuclear receptor corepressor 2 (Q9Y618 whole entry): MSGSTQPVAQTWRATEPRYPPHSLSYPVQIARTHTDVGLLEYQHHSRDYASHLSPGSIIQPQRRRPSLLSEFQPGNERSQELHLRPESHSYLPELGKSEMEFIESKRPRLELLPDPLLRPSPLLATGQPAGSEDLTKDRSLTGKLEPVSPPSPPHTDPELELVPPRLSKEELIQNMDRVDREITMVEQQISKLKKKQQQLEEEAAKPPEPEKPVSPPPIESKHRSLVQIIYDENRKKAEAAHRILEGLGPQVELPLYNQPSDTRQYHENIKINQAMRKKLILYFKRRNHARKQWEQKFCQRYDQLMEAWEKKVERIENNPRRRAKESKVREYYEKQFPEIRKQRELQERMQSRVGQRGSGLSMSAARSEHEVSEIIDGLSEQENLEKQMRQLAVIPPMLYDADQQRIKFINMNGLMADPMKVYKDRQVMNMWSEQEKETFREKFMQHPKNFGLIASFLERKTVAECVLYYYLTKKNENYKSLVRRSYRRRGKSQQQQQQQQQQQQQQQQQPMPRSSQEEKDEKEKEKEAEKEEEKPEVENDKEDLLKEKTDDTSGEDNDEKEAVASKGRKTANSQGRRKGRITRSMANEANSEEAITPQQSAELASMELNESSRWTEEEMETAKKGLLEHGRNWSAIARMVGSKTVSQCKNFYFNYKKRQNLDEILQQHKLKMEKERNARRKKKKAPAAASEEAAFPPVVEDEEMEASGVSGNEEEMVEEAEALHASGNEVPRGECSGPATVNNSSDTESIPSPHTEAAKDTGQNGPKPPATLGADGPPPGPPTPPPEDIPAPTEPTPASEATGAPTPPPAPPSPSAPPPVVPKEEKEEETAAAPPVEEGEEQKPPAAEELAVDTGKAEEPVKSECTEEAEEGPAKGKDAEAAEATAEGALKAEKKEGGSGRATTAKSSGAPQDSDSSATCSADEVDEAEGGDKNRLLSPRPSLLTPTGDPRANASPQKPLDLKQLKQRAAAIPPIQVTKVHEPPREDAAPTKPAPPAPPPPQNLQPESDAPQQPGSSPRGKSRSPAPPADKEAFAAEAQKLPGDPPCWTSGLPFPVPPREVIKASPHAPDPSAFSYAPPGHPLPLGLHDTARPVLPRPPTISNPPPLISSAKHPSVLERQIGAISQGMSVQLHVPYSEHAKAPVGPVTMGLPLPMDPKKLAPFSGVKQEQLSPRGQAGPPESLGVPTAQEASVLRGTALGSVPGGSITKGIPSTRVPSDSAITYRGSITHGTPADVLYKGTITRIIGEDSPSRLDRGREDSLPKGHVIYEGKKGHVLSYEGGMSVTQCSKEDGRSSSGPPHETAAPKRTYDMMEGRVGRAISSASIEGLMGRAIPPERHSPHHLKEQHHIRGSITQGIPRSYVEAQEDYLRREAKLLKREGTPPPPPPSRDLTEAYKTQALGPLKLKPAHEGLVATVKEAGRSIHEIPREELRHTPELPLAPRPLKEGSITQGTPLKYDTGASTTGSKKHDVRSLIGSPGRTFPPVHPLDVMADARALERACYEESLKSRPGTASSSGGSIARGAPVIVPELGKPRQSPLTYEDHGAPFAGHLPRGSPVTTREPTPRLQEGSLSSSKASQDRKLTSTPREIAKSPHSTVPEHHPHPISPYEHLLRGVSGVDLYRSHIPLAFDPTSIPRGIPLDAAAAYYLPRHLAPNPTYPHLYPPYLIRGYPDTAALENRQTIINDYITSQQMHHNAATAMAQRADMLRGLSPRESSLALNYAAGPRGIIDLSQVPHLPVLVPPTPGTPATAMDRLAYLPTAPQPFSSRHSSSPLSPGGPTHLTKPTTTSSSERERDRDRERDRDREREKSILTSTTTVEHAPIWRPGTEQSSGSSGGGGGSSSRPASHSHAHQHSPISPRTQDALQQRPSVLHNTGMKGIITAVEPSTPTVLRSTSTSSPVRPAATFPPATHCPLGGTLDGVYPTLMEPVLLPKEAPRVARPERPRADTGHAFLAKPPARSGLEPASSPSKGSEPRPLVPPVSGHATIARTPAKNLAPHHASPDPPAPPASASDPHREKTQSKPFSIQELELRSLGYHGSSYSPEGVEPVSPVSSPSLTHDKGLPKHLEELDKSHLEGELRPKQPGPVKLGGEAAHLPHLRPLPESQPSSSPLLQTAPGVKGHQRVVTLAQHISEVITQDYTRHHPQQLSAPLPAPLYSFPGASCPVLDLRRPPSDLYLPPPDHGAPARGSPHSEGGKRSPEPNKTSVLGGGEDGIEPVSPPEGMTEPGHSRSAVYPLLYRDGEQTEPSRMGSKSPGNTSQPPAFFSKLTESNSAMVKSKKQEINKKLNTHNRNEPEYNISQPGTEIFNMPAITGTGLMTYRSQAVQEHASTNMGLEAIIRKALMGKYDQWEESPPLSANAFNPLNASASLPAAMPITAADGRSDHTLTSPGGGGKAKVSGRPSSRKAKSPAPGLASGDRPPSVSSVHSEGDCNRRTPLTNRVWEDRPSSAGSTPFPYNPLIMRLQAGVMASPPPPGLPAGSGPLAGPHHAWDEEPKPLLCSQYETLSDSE
Chain of Genome polyprotein (Q2Q167 whole entry): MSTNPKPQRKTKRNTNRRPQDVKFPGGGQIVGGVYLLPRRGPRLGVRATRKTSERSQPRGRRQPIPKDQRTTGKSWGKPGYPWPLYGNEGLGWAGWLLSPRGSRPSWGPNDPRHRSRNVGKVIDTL
Chain of RNA-editing ligase 1, mitochondrial (P86926 whole entry): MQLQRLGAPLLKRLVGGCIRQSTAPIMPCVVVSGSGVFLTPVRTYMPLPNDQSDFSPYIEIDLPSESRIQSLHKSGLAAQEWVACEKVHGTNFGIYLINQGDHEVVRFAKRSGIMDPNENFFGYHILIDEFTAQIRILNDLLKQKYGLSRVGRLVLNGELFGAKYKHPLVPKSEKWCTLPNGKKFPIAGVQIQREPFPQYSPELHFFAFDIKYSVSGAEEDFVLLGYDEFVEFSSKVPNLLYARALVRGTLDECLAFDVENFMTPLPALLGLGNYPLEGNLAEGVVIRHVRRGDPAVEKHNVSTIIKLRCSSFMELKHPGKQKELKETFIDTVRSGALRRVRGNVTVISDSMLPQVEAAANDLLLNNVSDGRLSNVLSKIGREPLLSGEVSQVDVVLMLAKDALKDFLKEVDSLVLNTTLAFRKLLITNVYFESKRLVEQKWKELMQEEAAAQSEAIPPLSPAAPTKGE
Chain of Glyceraldehyde-3-phosphate dehydrogenase (P04406 whole entry): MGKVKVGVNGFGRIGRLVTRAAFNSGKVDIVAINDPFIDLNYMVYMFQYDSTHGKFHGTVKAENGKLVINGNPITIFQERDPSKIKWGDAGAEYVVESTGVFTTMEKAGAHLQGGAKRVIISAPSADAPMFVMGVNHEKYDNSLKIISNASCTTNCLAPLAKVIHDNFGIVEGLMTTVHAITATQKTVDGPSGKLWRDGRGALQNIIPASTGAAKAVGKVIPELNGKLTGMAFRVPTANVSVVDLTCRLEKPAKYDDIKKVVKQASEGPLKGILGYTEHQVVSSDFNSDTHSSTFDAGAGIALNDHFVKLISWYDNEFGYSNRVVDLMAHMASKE

C[N+]1=C2CCCCCN2C(O)(c2ccccc2)C1 (stereo unspecified)
IC50 [1]: 7.03 µM (active) | EC50 [2]: 13.8 µM (not active) | IC50 [3]: 3.25 µM (active) | IC50 [4]: 75.1 µM (active)

Clc1ccc(CSc2nc[nH]n2)cc1
IC50 [5]: > 100 µM (active)

Cc1cccc2c1NC(=O)/C2=C1\Nc2ccc(Br)cc2C1=O
IC50 [6]: 0.52 µM (not active)

COc1ccc(-c2ccc(SCC(=O)Nc3nccs3)nn2)cc1OC
IC50 [7]: 6.57 µM (active) | IC50 [8]: 7.04 µM (active)

COc1ccc2oc(C(=O)Nc3ccc(N4CCOCC4)cc3)c(C)c2c1
IC50 [9]: > 49.8 µM (not active) | IC50 [10]: > 79 µM (inactive)

COc1cc(/C=N/Nc2c(F)c(F)nc(F)c2F)cc(OC)c1O
IC50 [11]: 2.94 µM (active)

Nc1[nH]ncc1C(=O)Nc1cccc(C(F)(F)F)c1
IC50 [12]: 44.5 µM (active) | EC50 [13]: 12.5 µM (not active)

Cc1cc(C)c(C(=O)/C=C/c2ccc(C(C)C)cc2)c(O)n1
AC50 [14]: 9.65 µM (active) | CC50 [15]: 35.8 µM (active)

CCc1ccccc1N(CC(=O)OC)S(C)(=O)=O
IC50 [16]: > 100 µM (not active)

COCCNC1=C(Cl)C(=O)N(c2ccc(Cl)c(Cl)c2)C1=O
IC50 [17]: 4.96 µM (active) | IC50 [18]: > 100 µM (not active) | IC50 [19]: 12.6 µM (active)

Oc1ccccc1/C=N/Nc1cc(N2CCCC2)nc(N2CCCC2)n1
AC50 [20]: 1.97 µM (active) | EC50 [21]: > 60 µM (inconclusive) | IC50 [22]: 4.26 µM (active) | IC50 [23]: > 96.6 µM (inactive) | IC50 [24]: 34.4 µM (not active) | IC50 [25]: 1.03 µM (active) | EC50 [26]: 1.85 µM (active)
